Experimental findings from publication PMC3847553, “Kinetic properties of “dual” orexin receptor antagonists at OX1R and OX2R orexin receptors” (Frontiers in Neuroscience, 2013) are described below.

Read-outs that look alike come from different tables or passages of the source.

One test has as its target T1, human OX2R (Homo sapiens, UniProt O43614).
T1 construct: expressed in transfected cells; host or cells: CHO; cells from GNF, San Diego
T1 sequence (O43614 1-444): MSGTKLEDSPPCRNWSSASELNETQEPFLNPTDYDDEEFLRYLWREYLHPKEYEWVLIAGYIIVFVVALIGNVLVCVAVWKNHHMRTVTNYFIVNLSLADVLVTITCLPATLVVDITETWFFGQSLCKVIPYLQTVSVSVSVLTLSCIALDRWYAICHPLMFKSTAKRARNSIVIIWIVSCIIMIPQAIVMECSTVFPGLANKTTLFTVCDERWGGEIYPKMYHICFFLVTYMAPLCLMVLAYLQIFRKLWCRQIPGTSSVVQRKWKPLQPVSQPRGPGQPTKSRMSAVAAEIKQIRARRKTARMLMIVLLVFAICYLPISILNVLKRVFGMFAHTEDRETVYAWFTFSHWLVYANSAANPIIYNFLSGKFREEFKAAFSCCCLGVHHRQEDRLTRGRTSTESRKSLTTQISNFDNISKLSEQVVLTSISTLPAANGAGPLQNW
In words: FLIPR orexin A-stimulated calcium accumulation, human OX2R. The conditions noted are these: CHO cells. In kind it is cell-based. From the text: Chinese Hamster Ovary (CHO) cells stably transfected with the cDNA encoding the human OX1R (CHO-hOX1) or OX2R (CHO-hOX2) were used (kindly provided by T. Cremer and Dr. S. Geisse, NIBR Basel, Switzerland). For measurements of calcium accumulation using FLIPR® (Fluorescent Imaging Plate Reader) assay, CHO or Human Embryonic Kidney (HEK) cells stably expressing mouse, rat or human OX1R or OX2R (kindly provided by Dr. A. Chen, GNF, San Diego, CA, USA) were used. […] Cells were maintained in a humidified incubator at 37°C in 5% CO2. For crude cell membrane preparations, cells were washed and harvested in 10 mM HEPES (pH 7.5), and centrifuged at 4°C for 5 min at 2500 g. The cell pellet was either stored at −80°C or used directly.
(§1) Cells expressing either human, rat or mouse OX1R or OX2R were seeded at 8,000 cells/well in black 384 well clear bottom plates and incubated overnight at 37°C. The following day, medium was discarded and cells loaded with 50 μ l of 1 mM Fluo-4 AM (Invitrogen F14202) in dimethyl sulfoxide in working buffer (Hanks' balanced salt solution, 10 mM HEPES) and incubated for 60 min at 37°C. The loading buffer was removed and cells were washed with 100 μ l working buffer containing […], 0.1% BSA, and 2.5 mM Probenecid (pH 7.4) to remove the excess Fluo-4 AM. […] The assay plate was then transferred to the Molecular Devices-FLIPR384. The baseline calcium signal was recorded for 10 s, then the antagonist of interest was injected (10 μl at 3 times the final concentration) and the calcium signal recorded every second for 1 min, then every 2 s 40 times.

For the next test, the target named is T2, mouse OX1R (Mus musculus, UniProt P58307).
T2 construct: expressed in transfected cells; host or cells: HEK; cells from GNF, San Diego
T2 sequence (P58307 1-416): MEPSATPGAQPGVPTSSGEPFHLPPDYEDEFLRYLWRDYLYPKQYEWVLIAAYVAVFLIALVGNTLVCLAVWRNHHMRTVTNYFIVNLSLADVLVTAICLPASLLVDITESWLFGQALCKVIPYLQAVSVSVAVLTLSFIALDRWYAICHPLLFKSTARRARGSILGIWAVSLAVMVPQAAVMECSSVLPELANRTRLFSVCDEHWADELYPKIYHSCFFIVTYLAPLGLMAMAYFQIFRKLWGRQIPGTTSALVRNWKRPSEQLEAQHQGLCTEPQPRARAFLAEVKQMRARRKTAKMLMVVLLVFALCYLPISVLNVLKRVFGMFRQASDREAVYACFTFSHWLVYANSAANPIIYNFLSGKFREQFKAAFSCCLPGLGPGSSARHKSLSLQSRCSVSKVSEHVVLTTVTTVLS
Briefly: FLIPR orexin A-stimulated calcium accumulation, mouse OX1R. In kind it is cell-based. Particulars: HEK cells. The method, then:
Chinese Hamster Ovary (CHO) cells stably transfected with the cDNA encoding the human OX1R (CHO-hOX1) or OX2R (CHO-hOX2) were used (kindly provided by T. Cremer and Dr. S. Geisse, NIBR Basel, Switzerland). For measurements of calcium accumulation using FLIPR® (Fluorescent Imaging Plate Reader) assay, CHO or Human Embryonic Kidney (HEK) cells stably expressing mouse, rat or human OX1R or OX2R (kindly provided by Dr. A. Chen, GNF, San Diego, CA, USA) were used. All cells were cultured in 1:1 Dulbecco's Modified Eagle's Medium (DMEM)/Ham's F12 Nutrients Mixture (F12) supplemented with 10% (v/v) fetal bovine serum (FBS), […] (100 μg/ml), Fungizone (250 μg/ml), and Geneticin (G418, […]). Cells were maintained in a humidified incubator at 37°C in 5% CO2. For crude cell membrane preparations, cells were washed and harvested in 10 mM HEPES (pH 7.5), and centrifuged at 4°C for 5 min at 2500 g. The cell pellet was either stored at −80°C or used directly.
as §1, with “times. Plates were then incubated at room temperature for 30 min, 1, 2, or 4 h.” for “times.”

Where [1] appears, read: pKi, antagonist incubation 30 min.
Setting [2] is: antagonist incubation 30 min, read-out: pKi (converted).
Where [3] appears, read: antagonist incubation 1 h, read-out: pKi (converted).
[4] abbreviates: antagonist incubation 2 h, read-out: pKi (converted).
The mark [5] stands for this setting: antagonist incubation 4 h, read-out: pKi (converted).

Regarding `CNC(=O)[C@@H](c1ccccc1)N1CCc2cc(OC)c(OC)cc2[C@@H]1CCc1ccc(C(F)(F)F)cc1` [Almorexant], the pKi on human OX2R (antagonist incubation 30 min) was 8.33 −log M. The Ki on human OX2R (antagonist incubation 1 h) is 1.51 nM; on human OX2R (antagonist incubation 2 h), 1.58 nM; at human OX2R (antagonist incubation 4 h) it was 0.813 nM; on mouse OX1R (setting [1]), 18.6 nM; at mouse OX1R (pKi, antagonist incubation 1 h), 23.4 nM; on mouse OX1R (pKi, antagonist incubation 2 h), 33.9 nM. The Ki on mouse OX1R (pKi, antagonist incubation 4 h) was 38.9 nM.

Turning to `Cc1ccc(-c2ncccn2)c(C(=O)N2C[C@H](COc3ccc(F)cn3)CC[C@H]2C)c1` [Filorexant], the Ki is 0.355 nM on human OX2R (antagonist incubation 30 min); 0.224 nM at human OX2R (antagonist incubation 1 h); 0.186 nM at human OX2R (antagonist incubation 2 h); 0.17 nM on human OX2R (antagonist incubation 4 h); 5.25 nM at mouse OX1R (setting [2]); 4.07 nM at mouse OX1R (setting [3]). Moreover, the figures for the Ki on mouse OX1R (setting [4]) and on mouse OX1R (setting [5]) were 6.61 nM and 5.89 nM, respectively.

In the case of `COc1ccnc(N2CCC3(CCCN(Cc4c[nH]c5ccccc45)C3=O)CC2)n1` [IPSU, 2-((1H-Indol-3-yl)methyl)-9-(4-methoxypyrimidin-2-yl)-2,9-diazaspiro[5.5]undecan-1-one], the Ki is 10 nM on human OX2R (antagonist incubation 30 min); 10.7 nM at human OX2R (antagonist incubation 1 h); 15.1 nM on human OX2R (antagonist incubation 2 h); 20.9 nM at human OX2R (antagonist incubation 4 h); 331 nM at mouse OX1R (setting [2]); 490 nM at mouse OX1R (setting [3]). In addition, the Ki at mouse OX1R (setting [4]) was 288 nM; at mouse OX1R (setting [5]), 324 nM.

`Cc1nc(C(=O)N2CCCC[C@H]2CNC(=O)c2cccc3occc23)c(-c2ccc(F)cc2)s1` [SB-649868]: the Ki on human OX2R (antagonist incubation 30 min) was 0.302 nM; at human OX2R (antagonist incubation 1 h), 0.372 nM; on human OX2R (antagonist incubation 2 h), 0.17 nM; at human OX2R (antagonist incubation 4 h) it was 0.151 nM; on mouse OX1R (setting [2]) it was 0.158 nM; on mouse OX1R (setting [3]), 0.427 nM. Moreover, the Ki was 0.0407 nM on mouse OX1R (setting [4]) and 0.0468 nM at mouse OX1R (setting [5]).

On to `Cc1ccc(-n2nccn2)c(C(=O)N2CCN(c3nc4cc(Cl)ccc4o3)CC[C@H]2C)c1` [Suvorexant], for which the Ki was 1.26 nM on mouse OX1R (setting [1]); 1.05 nM at mouse OX1R (pKi, antagonist incubation 1 h); 0.933 nM at mouse OX1R (pKi, antagonist incubation 2 h); 1.02 nM on mouse OX1R (pKi, antagonist incubation 4 h).
